Results from patent publication US20250235437A1, “PROTEOLYSIS TARGETING CHIMERA (PROTAC) MOLECULE FOR DEGRADATION OF ENL AND CANCER THERAPY” (Baylor College of Medicine, priority 2022, published 2025).

How the values were obtained:
ENL [1] = molecular target: T1, ENL (Homo sapiens, UniProt Q03111); assay: ENL degradation in Molm-13 cells (Western blot); type: cell-based; settings: Molm-13 cells (MLL1-AF9), 24 h
T1 construct: tested whether the compounds degrade ENL and AF9 in MV4;11 leukemia cells; endogenous in cells; host or cells: MV4;11; Molm-13
T1 sequence (Q03111 1-559): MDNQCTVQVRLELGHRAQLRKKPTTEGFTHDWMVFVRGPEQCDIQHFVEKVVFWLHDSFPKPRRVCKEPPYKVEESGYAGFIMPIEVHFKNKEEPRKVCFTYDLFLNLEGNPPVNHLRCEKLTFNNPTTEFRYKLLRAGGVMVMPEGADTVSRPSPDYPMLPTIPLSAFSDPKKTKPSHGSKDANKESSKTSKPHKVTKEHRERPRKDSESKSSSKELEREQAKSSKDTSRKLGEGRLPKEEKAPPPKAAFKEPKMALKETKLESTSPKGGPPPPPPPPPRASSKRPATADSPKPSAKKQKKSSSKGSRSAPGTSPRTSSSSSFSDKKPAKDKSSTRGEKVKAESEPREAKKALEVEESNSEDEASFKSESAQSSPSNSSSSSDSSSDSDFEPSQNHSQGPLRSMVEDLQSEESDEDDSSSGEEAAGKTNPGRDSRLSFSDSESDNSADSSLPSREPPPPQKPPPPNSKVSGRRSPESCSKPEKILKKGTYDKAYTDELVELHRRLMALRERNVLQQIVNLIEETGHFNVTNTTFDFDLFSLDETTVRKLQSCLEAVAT
Procedure: Next, Applicant tested whether the compounds degrade ENL and AF9 in MV4;11 leukemia cells with the .MLL1-AF4 oncogene. Upon compound treatment for 24 h, the cells were washed, lysed, and the lysates subjected to SDS-PAGE (sodium dodecyl sulphate-polyacrylamide gel electrophoresis) followed by detection with Western blot.
In addition, compound 1 efficiently degraded ENL in another MLL1-r leukemia Molm-13 cells (with MLL1-AF9) with DC50 of 47 nM and Dmax of ˜88% (FIG. 3E). Moreover, significant ENL degradation can be detected in 2 h and depletion occurred within 24 h (FIG. 3F).

ENL [2] = molecular target: T1, ENL; assay: Nuclear and cytoplasmic ENL levels in MV4;11 cells, 4 days (Western blot); type: cell-based
Excerpt: Upon treatment of MV4;11 cells with these compounds for 4 days, cytoplasmic and nuclear proteins were separated and subjected to SDS-PAGE/Western blot.

[3] = system: AF9, AFF4, cyclin-T1, DOT1L; assay: Levels of other SEC-related proteins in MV4;11 cells, 4 days (Western blot); type: cell-based; settings: nucleus
Excerpt: Applicant further investigated how compound 1 affects ENL, AF9 and other proteins of SEC in the cytoplasmic and nuclear compartments, the latter of which are more relevant to the functions of these transcription cofactors. […] Upon treatment of MV4;11 cells with these compounds for 4 days, cytoplasmic and nuclear proteins were separated and subjected to SDS-PAGE/Western blot.

ENL [4] = molecular target: T1, ENL; assay: ChIP-qPCR, ENL at Myc and HoxA9 gene promoters; type: cell-based; settings: 500 nM
Excerpt: (§1) Chromatin immunoprecipitation (ChIP) followed by qPCR was used to further probe the activity of compound 1 in the gene promoters of Myc and HoxA9, two characteristic MLL1 target genes.

[5] = system: AF9, AFF4, cyclin-T1 and H3K79me2; assay: ChIP-qPCR, AF9, AFF4, cyclin-T1 and H3K79me2 at Myc and HoxA9 gene promoters; type: cell-based; settings: 500 nM
Excerpt: as §1

Molm-13 cells [6] = assay: Gene profiling and GSEA in Molm-13 cells; type: cell-based; settings: 500 nM
Procedure: Gene profiling was performed to find how compound 1 affects global gene transcriptome. mRNAs from the control and compound 1 (500 nM) treated Molm-13 cells were extracted, purified and sequenced. Bioinformatic analysis was performed to find differentially expressed genes between the treated and control cells, which were used for gene set enrichment analysis (GSEA). […] These clearly indicate that treatment with compound 1 recapitulated ENL knockout with similar patterns of gene expression changes.

RPMI-8226 cells = assay: Anti-proliferative activity, RPMI-8226 cells; type: cell-based
Hela cell = assay: Anti-proliferative activity, Hela cells; type: cell-based; settings: Hela (cervical) cells; read-out: EC50, proliferation
Molm-13 cells [7] = assay: Apoptosis of Molm-13 cells; type: cell-based
Procedure: Treatment of Molm-13 cells with compound 1 for 7 days at 1 and 3 μM caused significant apoptosis of 22.7% and 67.6%, respectively (FIG. 6C).

Molm-13 cells [8] = assay: Differentiation of Molm-13 cells (CD14, CD11b); type: cell-based; settings: 3 μM for 5 days
HoxA11 and HoxA13 = assay: mENL-driven HoxA11 and HoxA13 expression in HEK293T cells; type: cell-based; design: dose or concentration left out as unconfirmed; settings: 24 h incubation
Excerpt: Next, Applicant investigated how mENL degradation affect expression of HoxA11 and HoxA13 in this cell model.

ENL [9] = molecular target: T1, ENL; assay: ENL degradation in MV4;11 cells (Western blot); type: cell-based; settings: 500 nM
Molm-13 cells [10] = settings: Molm13 cells, footnote b: reported in Li, et al. J Hematol Oncol, 2022; read-out: Anti-proliferative activity EC50, Molm13; cited from earlier work

For `C[C@H]1CCCN1Cc1nc2cc(NC(=O)c3ccc4c(cnn4CCCCCCCCNc4cccc5c4C(=O)N(C4CCC(=O)NC4=O)C5=O)c3)ccc2[nH]1` (stereo partly shown) [Compound 1], the DC50 (ENL [1]) was 47 nM, the “Dmax, ENL” value (ENL [1]) was ~88% and the “ENL level in the cytoplasmic extract” value (ENL [2]) was “significantly reduced”. For the same compound, the “ENL level in the nucleus” value (ENL [2]) was “significantly reduced dose-dependently and almost depleted with 500 nM”, the “levels of AF9, AFF4, cyclin-T1 and DOT1L” value [3] was “not significantly decreased” and the “ENL levels at Myc and HoxA9 gene promoters” value (ENL [4]) was “significantly reduced”. The “AF9, AFF4, cyclin-T1 and H3K79me2 at Myc and HoxA9 gene loci” value [5] was “did not significantly lower down”, the “normalized enrichment score (NES), gene set upregulated upon ENL knockout” value (Molm-13 cells [6]; 4 days, GSEA panel 1) was 7.46 and the “normalized enrichment score (NES), gene set downregulated upon ENL knockout” value (Molm-13 cells [6]; 4 days, GSEA panel 2) was −4.26. For the same compound, the “transcription of Myc-target genes” value (Molm-13 cells [6]; GSEA panel 7) was “significantly downregulated”, the “gene sets regulated by knockdown of MLL-AF9 or -ENL” value (Molm-13 cells [6]; GSEA panels 3 and 4) was “significantly up- and down-regulated” and the “expression of HoxA9-regulated genes” value (Molm-13 cells [6]; GSEA panels 5 and 6) was “reversed expression patterns”. For the same compound, the EC50 (RPMI-8226 cells) was 1200 ± 230 nM, the EC50 (Hela cell) was > 50000 nM and the apoptosis (Molm-13 cells [7]; 0.5 μM or shorter incubation (e.g. 4 days)) was < 5%. The apoptosis (Molm-13 cells [7]; 7 days, 1 μM) was 22.7%, the apoptosis (Molm-13 cells [7]; 7 days, 3 μM) was 67.6% and the “cell differentiation (CD14, CD11b)” value (Molm-13 cells [8]) was “induced cell differentiation”. The “overexpression of HoxA11 and HoxA13” value (HoxA11 and HoxA13) was “significantly inhibited overexpression of HoxA11 and HoxA13”, the “time at which significant ENL degradation can be detected” value (ENL [9]) was 2 h and the “time to ENL depletion” value (ENL [9]) was ≤ 24 h. The EC50 (Molm-13 cells [10]) was 320 nM.
